Measured values: ChEMBL document CHEMBL1154250, “Isolation and characterization of peptides from Momordica cochinchinensis seeds” (J Nat Prod, 2009)
The source made the active and inactive calls. No cut-off for these calls is given here. Positions of bridges follow the written chain, without caps; N, C: chain ends. Residues, ends and D or L forms follow the SMILES beside them.

Legend:
[1] = Cytotoxicity against human NFF cells assessed as survivality at 1.3 uM after 3 days by SRB assay; format: cell-based; conditions: read-out: Survival
MM96L [2] = assay: Cytotoxicity against human MM96L cells assessed as survivality at 1.3 uM after 3 days by SRB assay; format: functional; conditions: 72 h, read-out: Survival
[3] = Inhibition of trypsin at 0.04 to 0.5 uM by UV-visible spectrophotometer
Helicoverpa armigera = assay: Insecticidal activity against Helicoverpa armigera larvae assessed as decrease in weight at 0.825 umol after 96 hrs; format: functional, organism-based
[4] = Cytotoxicity against human NFF cells assessed as survivality at 2 uM after 3 days by SRB assay; format: cell-based; conditions: read-out: Survival
[5] = Toxicity in human erythrocytes assessed as hemolytic activity up to 50 uM after 1 hr; format: cell-based; conditions: erythrocyte
MM96L [6] = assay: Cytotoxicity against human MM96L cells assessed as survivality at 2 uM after 3 days by SRB assay; format: functional; conditions: 72 h, read-out: Survival

CC[C@H](C)[C@@H]1NC(=O)CNC(=O)[C@H](C(C)C)NC(=O)CNC(=O)[C@@H]2CCCN2C(=O)[C@H]([C@@H](C)O)NC(=O)[C@H](C(C)C)NC(=O)[C@H]([C@@H](C)O)NC(=O)[C@@H]2CCCN2C(=O)[C@H](Cc2c[nH]c3ccccc23)NC(=O)[C@@H]2CSSC[C@@H]3NC(=O)[C@@H]4CCCN4C(=O)[C@H](CCCCN)NC(=O)CNC(=O)[C@H](CCC(=O)O)NC(=O)[C@@H](NC(=O)CN)CSSC[C@H](NC(=O)CNC(=O)CNC(=O)CNC(=O)[C@H](CSSC[C@@H](C(=O)N[C@@H](CO)C(=O)N[C@@H](CO)C(=O)N[C@@H](CO)C(=O)O)NC1=O)NC(=O)[C@H](CO)NC(=O)[C@H](CCCNC(=N)N)NC(=O)[C@H](Cc1ccccc1)NC(=O)[C@H](CC(C)C)NC(=O)CNC3=O)C(=O)N[C@@H](CCCNC(=N)N)C(=O)N2 (H-GCEGKPCGLFRSCGGGCRCWPTVTPGVGICSSS-OH; disulfide 2-17, 7-19, 13-30)
viability at 72 h, 1.3 µM [1]: 86%
viability at 1.3 µM (MM96L [2]): 51%

CC[C@H](C)[C@@H]1NC(=O)CNC(=O)[C@H](C(C)C)NC(=O)CNC(=O)[C@@H]2CCCN2C(=O)[C@H]([C@@H](C)O)NC(=O)[C@H](C(C)C)NC(=O)[C@H]([C@@H](C)O)NC(=O)[C@@H]2CCCN2C(=O)[C@H](Cc2c[nH]c3ccccc23)NC(=O)[C@@H]2CSSC[C@@H]3NC(=O)[C@H](CCC(N)=O)NC(=O)[C@H](CCCCN)NC(=O)CNC(=O)[C@H](CCC(=O)O)NC(=O)[C@@H](NC(=O)CN)CSSC[C@H](NC(=O)CNC(=O)CNC(=O)CNC(=O)[C@H](CSSC[C@H](C(=O)N[C@@H](CO)C(=O)N[C@@H](CO)C(=O)N[C@@H](CO)C(=O)O)NC1=O)NC(=O)[C@H](CO)NC(=O)[C@H](CCCNC(=N)N)NC(=O)[C@H](Cc1ccccc1)NC(=O)[C@H](CC(C)C)NC(=O)CNC3=O)C(=O)N[C@@H](CCCNC(=N)N)C(=O)N2
inhibition [3]: inactive
Activity (Helicoverpa armigera): inactive

CC[C@H](C)[C@@H]1NC(=O)CNC(=O)[C@H](C(C)C)NC(=O)CNC(=O)[C@@H]2CCCN2C(=O)[C@H]([C@@H](C)O)NC(=O)[C@H](C(C)C)NC(=O)[C@H]([C@@H](C)O)NC(=O)[C@@H]2CCCN2C(=O)[C@H](Cc2c[nH]c3ccccc23)NC(=O)[C@@H]2CSSC[C@@H]3NC(=O)[C@H](CCC(N)=O)NC(=O)[C@H](CCCCN)NC(=O)CNC(=O)[C@H](CCC(=O)O)NC(=O)[C@@H](NC(=O)CN)CSSC[C@H](NC(=O)CNC(=O)CNC(=O)CNC(=O)[C@H](CSSC[C@@H](C(=O)N[C@@H](CO)C(=O)N[C@@H](CO)C(=O)N[C@@H](CO)C(=O)O)NC1=O)NC(=O)[C@H](CO)NC(=O)[C@H](CCCNC(=N)N)NC(=O)[C@H](Cc1ccccc1)NC(=O)[C@H](CC(C)C)NC(=O)CNC3=O)C(=O)N[C@@H](CCCNC(=N)N)C(=O)N2 [listing 1 of 2 here]
viability at 72 h, 2 µM [4]: 89%
Activity [5]: Non-toxic

CC[C@H](C)[C@@H]1NC(=O)CNC(=O)[C@H](C(C)C)NC(=O)CNC(=O)[C@@H]2CCCN2C(=O)[C@H]([C@@H](C)O)NC(=O)[C@H](C(C)C)NC(=O)[C@H]([C@@H](C)O)NC(=O)[C@@H]2CCCN2C(=O)[C@H](Cc2c[nH]c3ccccc23)NC(=O)[C@@H]2CSSC[C@@H]3NC(=O)[C@H](CCC(N)=O)NC(=O)[C@H](CCCCN)NC(=O)CNC(=O)[C@H](CCC(=O)O)NC(=O)[C@@H](NC(=O)CN)CSSC[C@H](NC(=O)CNC(=O)CNC(=O)CNC(=O)[C@H](CSSC[C@@H](C(=O)N[C@@H](CO)C(=O)N[C@@H](CO)C(=O)N[C@@H](CO)C(=O)O)NC1=O)NC(=O)[C@H](CO)NC(=O)[C@H](CCCNC(=N)N)NC(=O)[C@H](Cc1ccccc1)NC(=O)[C@H](CC(C)C)NC(=O)CNC3=O)C(=O)N[C@@H](CCCNC(=N)N)C(=O)N2 [listing 2 of 2 here]
viability at 2 µM (MM96L [6]): 57%
